Laboratory results taken from US20070218456A1, “CELLULAR ASSAYS FOR SIGNALING RECEPTORS” (INVITROGEN CORPORATION, priority 2006, published 2007).
Converted amounts (≈) assume the structure as drawn.

Tests used:
[1] = tested on: T-REx™-G2A-NFAT-bla Freestyle™293F cells; assay: T-REx G2A NFAT-bla Freestyle 293F beta-lactamase reporter assay (inducer dose response); conditions: for EC50: Homo sapiens, FreeStyle 293-F
Description: In order to control the levels of G2A expression, G2A was placed under the control of an inducible promoter using Invitrogen's T-REx™ system. To again assess feasibility, pcDNA 5 G2A/TO was transiently transfected into CRE-bla Freestyle™ and NFAT-bla Freestyle™ cell lines stably expressing the T-REx™ Tet repressor plasmid (pcDNA6/TR; e.g., catalog# V1025-20, Invitrogen, Carlsbad, Calif.). The transfected cells were then treated with 10 ug/mL, 1 ug/mL, or 100 ng/mL tetracycline for 24 h to induce G2A expression. […] Stable pools of cells were created in both the TR CRE-bla and TR NFAT-bla Freestyle™293F backgrounds.
Stimulation Kinetics—Selected pools of both CRE-bla and NFAT-bla T-REx™ G2A Freestyle™ cells were stimulated with tetracycline for 3, 4, 5, or 24 h and loaded for 2 h with 1 μM LiveBLAzer™-FRET B/G substrate.
To improve the balance between tetracycline-induced signaling and cell death by testing shorter induction times, lower tetracycline concentrations and altered culture conditions were utilized to promote cell health. A 16 h tetracycline stimulation time was attempted on the pools from the first sort. Cells were plated at 10,000 cells/well 24 hours prior to assay in DMEM+10% dFBS and incubated at 37° C./5% CO2 until time of assay. The cells were stimulated for 16 hours (e.g., overnight) with a dilution series of the tetracycline. Following stimulation, the cells were loaded for 2 hours at room temperature in the dark with LiveBLAzer™-FRET B/G loading solution containing 1 μM substrate. This assay was done in Poly-D-Lysine coated plates.
Since G2A has no known agonists, doxycycline and tetracycline were compared as inducers of the assay. An antibiotic selected pool of cells were plated at 10,000 cells/well 24 hours prior to assay in DMEM+10% dFBS and incubated at 37° C./5% CO2 until time of assay. The cells were stimulated with a dilution series of each compound for 16 hours at 37° C./5% CO2 and loaded for 2 hours at room temperature in the dark with LiveBLAzer™-FRET B/G loading solution containing 1 μM substrate.
Cell Density/well—The influence of cell-plating density on assay performance was tested to find the density giving the best response and Z′ while maintaining the expected pharmacology. Cells were plated 24 hours prior to the assay at the densities indicated in FIG. 14 in DMEM+10% dFBS and incubated at 37° C./5% CO2 until the time of assay. The cells were stimulated for 16 hours at 37° C./5% CO2 with a dilution series of the doxycycline. After incubation, the cells were loaded for 2 hours at room temperature in the dark with LiveBLAzer™-FRET B/G loading solution containing 1 μM substrate.
DMSO Tolerance—Tests were performed related to assay performance as a function of DMSO concentration to determine the robustness of the assay to the range of DMSO challenge routinely encountered during high-throughput screening. Dose response curves were performed in the presence of 0%, 0.25%, 0.5%, or 1% DMSO. Cells were plated at 10,000 cells/well 24 hours prior to assay in DMEM+10% dFBS and incubated at 37° C./5% CO2 until time of assay. After incubation, DMSO was added to the wells to final concentrations of 0%, 0.25%, 0.5% and 1% DMSO. The cells were stimulated for 16 hours with a dilution series of the doxycycline. Following stimulation, the cells were loaded for 2 hours at room temperature in the dark with LiveBLAzer™-FRET B/G loading solution containing 1 μM substrate.
The substrate loading times were varied to find the time for an optimal assay performance. Cells were plated at 10,000 cells/well 24 hours prior to assay in DMEM+10% dFBS and incubated at 37° C./5% CO2 until time of assay. After incubation, DMSO was added to the wells to final concentration of 0.5%.

[2] = tested on: TREx™-mG2A-NFAT-bla Freestyle293F cells; assay: TREx-mG2A-NFAT-bla Freestyle293F (mouse G2A) doxycycline response; type: cell-based; conditions: Homo sapiens, FreeStyle 293-F, 16 h
Description: TREx™-mG2A-NFAT-bla Freestyle293F cells were stimulated for 16 hours with doxycycline in the presence of 0.5% DMSO. Cells were then loaded with LiveBLAzer™-FRET B/G (CCF4-AM) for 2 hours. Fluorescence emission values at 460 nm and 530 nm are obtained using a standard florescence plate reader and the Blue/Green Emission ratios are plotted against the concentration of the stimulant.

[3] = 60 min substrate loading, 10,000 cells/well, 0.5% DMSO, 16 h
[4] = 90 min substrate loading, 10,000 cells/well, 0.5% DMSO, 16 h
[5] = 120 min substrate loading, 10,000 cells/well, 0.5% DMSO, 16 h
[6] = representative data, 16 h, 0.5% DMSO, 2 h loading

## C[C@H]1c2cccc(O)c2C(=O)C2=C(O)[C@]3(O)C(=O)C(C(N)=O)=C(O)[C@@H](N(C)C)[C@@H]3[C@@H](O)[C@@H]21 [Doxycycline]
[1]; 0.0% DMSO, 10,000 cells/well, 16 h
  RR (Max): 6.9
[1]; 0.25% DMSO, 10,000 cells/well, 16 h
  RR (Max): 7.2
[1]; 0.50% DMSO, 10,000 cells/well, 16 h
  RR (Max): 6.5
[1]; 1.00% DMSO, 10,000 cells/well, 16 h
  RR (Max): 5.4
[1]; 1,250 cells/well, clone #20, 16 h, 0.5% DMSO
  RR (Max): 3.51
[1]; 2,500 cells/well, clone #20, 16 h, 0.5% DMSO
  RR (Max): 4.8
[1]; [3]
  RR (Max): 4.5
  EC50: 0.162 ng/mL (≈ 0.364 nM)
[1]; 5,000 cells/well, clone #20, 16 h, 0.5% DMSO
  RR (Max): 5.93
[1]; [4]
  RR (Max): 6.5
  EC50: 0.151 ng/mL (≈ 0.34 nM)
[1]; [5]
  RR (Max): 6.5
  EC50: 0.172 ng/mL (≈ 0.388 nM)
[1]; 10,000 cells/well, clone #20, 16 h, 0.5% DMSO
  RR (Max): 7.7
[1]; Average of DR 1-3
  RR (Max): 5.77
  EC50: 0.132 ng/mL (≈ 0.297 nM)
[1]; DR 1 (reproducibility, separate day)
  RR (Max): 5.36
[1]; DR 2 (reproducibility, separate day)
  RR (Max): 5.95
[1]; DR 3 (reproducibility, separate day)
  RR (Max): 5.99
[1]; Fresh cells taken from culture
  RR (Max): 5.99
[1]; Frozen cells thawed immediately before use
  RR (Max): 2.48
[1]; 16 h, 0.0% DMSO, 10,000 cells/well
  EC50: 0.159 ng/mL (≈ 0.358 nM)
[1]; 16 h, 0.25% DMSO, 10,000 cells/well
  EC50: 0.197 ng/mL (≈ 0.444 nM)
[1]; 16 h, 0.50% DMSO, 10,000 cells/well
  EC50: 0.172 ng/mL (≈ 0.388 nM)
[1]; 16 h, 1.00% DMSO, 10,000 cells/well
  EC50: 0.187 ng/mL (≈ 0.422 nM)
[1]; 16 h, 1,250 cells/well, clone #20, 16 h, 0.5% DMSO
  EC50: 0.305 ng/mL (≈ 0.687 nM)
[1]; 16 h, 2,500 cells/well, clone #20, 16 h, 0.5% DMSO
  EC50: 0.216 ng/mL (≈ 0.485 nM)
[1]; 16 h, 5,000 cells/well, clone #20, 16 h, 0.5% DMSO
  EC50: 0.199 ng/mL (≈ 0.447 nM)
[1]; 16 h, 10,000 cells/well, clone #20, 16 h, 0.5% DMSO
  EC50: 0.291 ng/mL (≈ 0.655 nM)
[1]; 16 h, DR 1 (reproducibility, separate day), 10,000 cells/well, 0.5% DMSO
  EC50: 0.246 ng/mL (≈ 0.553 nM)
[1]; 16 h, DR 2 (reproducibility, separate day), 10,000 cells/well, 0.5% DMSO
  EC50: 0.0963 ng/mL (≈ 0.217 nM)
[1]; 16 h, DR 3 (reproducibility, separate day), 10,000 cells/well, 0.5% DMSO
  EC50: 0.0533 ng/mL (≈ 0.12 nM)
[1]; 16 h, Fresh cells taken from culture, 10,000 cells/well
  EC50: 0.0533 ng/mL (≈ 0.12 nM)
[1]; 16 h, Frozen cells thawed immediately before use, 10,000 cells/well, 16 h
  EC50: > 0.985 ng/mL
[1]; antibiotic selected pool, 10,000 cells/well, 16 h stimulation, 2 h loading
  EC50: 1.6 ng/mL (≈ 3.6 nM)
[1]; [6]
  EC50: 0.05 ng/mL (≈ 0.113 nM)
  EC100: 2.2 ng/mL
[1]; antibiotic selected pool, 10,000 cells/well, 16 h stimulation
  RR (Max): 3.3
[1]; antibiotic selected pool, 16 h
  times more potent than tetracycline: ~30 times
[2]; clone #2, 0.5% DMSO
  EC50: 0.386 ng/mL (≈ 0.869 nM)
[2]; clone #25, 0.5% DMSO
  EC50: 1.12 ng/mL (≈ 2.52 nM)
[2]; clone #53, 0.5% DMSO
  EC50: 0.524 ng/mL (≈ 1.18 nM)
